Experimental data reported in patent US20230183263A1, “COMBINATION FOR TREATING HEPATITIS B” (FUJIAN AKEYLINK BIOTECHNOLOGY CO., LTD., priority 2020, published 2023).

Key:
[1] = Cytotoxicity in HepG2-NTCP cells by CellTiter-Glo; format: cell-based, human; details: human, single drug, day 9
Description: (§1) In this study, HepG2-NTCP cell in vitro infection model was used to evaluate the inhibitory activity of a combined administration of compound WWSO with Entecavir (ETV) on HBV The content of HBV DNA in cell supernatant was detected by real-time quantitative PCR (qPCR) method, and the content of HBeAg and HBsAg was detected by ELISA, and the anti-HBV activity of the combined action of the compound was determined, while CellTiter-Glo was used to detect the effect of the test compound on cell viability.
(§2) Cell line: HepG2-NTCP cell line was constructed and provided by WuXi AppTec. HepG2-NTCP cells were HepG2 cells stably transfected and continued to highly express the human NTCP gene, and were susceptible to be infected by HBV The cell medium was DMEM medium added with 10% fetal bovine serum, 1% Penicillin-Streptomycin, 1% glutamine, 1% non-essential amino acids and G418 (500 µg/mL).
(§3) 2.5 On day 9, cell plate supernatant treated by compound was collected and DNA was extracted according to the QIAamp 96 DNA Blood Kit (12) instructions. HBeAg and HBsAg were detected according to the instructions of ELISA detection kit, meanwhile, the cytotoxicity of compound pairs was detected by CellTiter-Glo kit, and the chemiluminescence intensity (RLU) of each cell well was detected by multifunctional microplate reader according to the method of kit instructions. HBV DNA was quantified by qPCR method. HBV plasmid DNA was used as the standard, and standard HBV plasmid DNA concentration was diluted 7 points starting from 10^7 copies/µL at a 10-fold gradient. The HBV DNA copy number was calculated in each test sample by fitting the standard curve using the HBV DNA copy number and CT values of each standard.

D-type HBV [2] = experiment: Single drug anti-HBV activity in HepG2-NTCP in vitro infection model; format: cell-based, Hepatitis B Virus; details: for EC50: Hepatitis B virus, 216 h, HepG2-NTCP
Description: as §1, §2
Virus: D-type HBV was concentrated from HepG2.2.15 cell culture supernatants.
2.1 On day 0, HepG2-NTCP cells were seeded into a 48-well cell culture plate at a density of 75,000 cells/well, and then the cells were cultured at 5% CO2 and 37° C. overnight.
2.2 On day 2, HBV was added to infect HepG2-NTCP cells.
2.3 On day 3, WWSO and ETV single drugs were administered at seven different concentrations, respectively, or WWSO in combination with ETV was administered at 5 different concentrations in orthorhombic proportion, added to 48-well plates with each combination having three duplicate plates.
2.4 On day 6, the cell supernatant was discarded and fresh medium containing the compounds was added, and the cells were cultured at 5% CO2 and 37° C. for 3 days.
as §3

HepG2-NTCP cells = experiment: Cytotoxicity in HepG2-NTCP cells by CellTiter-Glo; format: cell-based, human; details: single drug and combined action experiments
Description: as §1, §2, §3

D-type HBV [3] = experiment: Single drug in vitro antiviral activity in HBV-infected PHH (HBV DNA qPCR, HBeAg and HBsAg ELISA); format: cell-based, Hepatitis B Virus; details: for EC50: Hepatitis B virus, 192 h, Day 8
Description: 1. The PHH model was used to evaluate the single drug in vitro antiviral activity of the test compound
On day 0, primary human hepatocytes were resuscitated and plated into two 48-well plates (1.32×10^5 cells/well).
On day 1, HBV was added to infect PHH (2000 GE/cell). […] Fresh medium with compound was replaced every 1 to 2 days.
The final concentration of DMSO in the medium was 2%.
The medium was replaced with the fresh medium containing the compound on days 4, 6, 8, 10, 12, 14, 16, 18 and 20. On day 22, the culture supernatant was collected and cell viability was detected using CellTiter-Glo.
Cell culture supernatants on days 8, 14 and 22 were collected for HBV DNA, HBeAg and HBsAg detection.
(§4) HBV DNA detection: DNA in the supernatant was extracted according to the DNA extraction kit (Qiagen-51162), and HBV DNA in the sample was quantified by qPCR method, and the qPCR reaction system is shown in Table 6. HBV plasmid DNA was used as a standard for 10-fold serial dilution, and the standard range was from 1.0× 10^7 copies/µL to 10 copies/µL. The PCR reaction program was: Heating at 95° C. for 10 minutes, then cycle mode was entered, and heating at 95° C. for 15 seconds, then at 60° C. for 1 minute for a total of 40 cycles. The HBV DNA content in the samples was calculated based on the standard curve and the Ct value of each sample.
(§5) Detection of HBeAg and HBsAg: According to the instructions of ELISA kit, the levels of HBeAg and HBsAg in supernatant were detected. The method was briefly described as follows: 50 µL, of standard was taken, and sample and control sample were added into the detection plate, then 50 µL of enzyme conjugate was added to each well, incubated at 37° C. for 60 minutes, and washed with a washing solution and then dried, and then 50 µL of pre-mixed luminescent substrate was added and the mixture was incubated at room temperature for 10 minutes in the dark, and finally the luminescence value was measured by a microplate reader. The content of HBeAg and HBsAg in the sample was calculated according to the standard curve and the chemiluminescence value of each sample.
(§6) Inhibition rate %=(1- HBV DNA content or HBsAg content or HBeAg content in the sample/HBV DNA content or HBsAg content or HBeAg content in DMSO control group) × 100
CC50 and EC50 were calculated by GraphPad Prism software, and the inhibition curve fitting method was sigmoidal dose-response (variable slope).

[4] = Cell viability of PHH by CellTiter-Glo; format: cell-based, human; details: human, primary human hepatocytes (PHH), HBV infection model, administration after infection, Day 22
Description: (§7) The medium was replaced with the fresh medium containing the compound on days 4, 6, 8, 10, 12, 14, 16, 18 and 20. On day 22, the culture supernatant was collected and cell viability was detected using CellTiter-Glo. The final concentration of DMSO in the cell medium was 2%. The medium was replaced with the medium containing the compound on days 4 and 6. On day 8, the culture supernatant was collected for detecting HBV DNA, HBeAg and HBsAg, and then the collected supernatant was added with CellTiter-Glo to measure cell viability. The final concentration of DMSO in the medium was 2%. The medium was replaced with the medium containing the compound on days 4 and 6. On day 8, the culture supernatant was collected for detecting HBV DNA, HBeAg and HBsAg, and then the collected cell supernatant was added with CellTiter-Glo to measure cell viability. Cell viability detection: After collecting the cell culture supernatant, CellTiter-Glo was diluted with medium at a ratio of 1:1, and added to the cell plate, and left at room temperature for 10 minutes to detect the luminescence value with a microplate reader. Cell activity% = (luminescence value of sample-average value of blank control well)/(luminescence value of DMSO control group-average value of blank control well) × 100 CC50 and EC50 were calculated by GraphPad Prism software, and the inhibition curve fitting method was sigmoidal dose-response (variable slope).

[5] = tested on: human primary hepatocytes (PHH); experiment: Cell viability of PHH by CellTiter-Glo; format: cell-based
Description: as §7

D-type HBV [6] = experiment: Combined administration in HBV-infected PHH, 5x5 matrix, MacSynergy II analysis; format: cell-based, Hepatitis B Virus; details: two-drug combination with Peg-IFNα-2a; for antagonistic index (inhibition of HBsAg and HBeAg): 95% confidence interval
Description: On day 0, primary human hepatocytes were resuscitated and plated into six 48-well plates (1.32×10^5 cells/well).
On day 1, […] (2000 GE/cell). On the second day, different groups of combined drugs were added for treatment:
The arrangement of the compounds in the combined action is shown in Table 2, and the test concentrations of the compounds are shown in Table 3.
(§8) The final concentration of DMSO in the cell medium was 2%. The medium was replaced with the medium containing the compound on days 4 and 6. On day 8, the culture supernatant was collected for detecting HBV DNA, HBeAg and HBsAg, and then the collected supernatant was added with CellTiter-Glo to measure cell viability.
The arrangement of the compounds in the combined action is shown in Table 4, and the test concentrations of the compounds are shown in Table 5.
as §8, with “in the medium was” for “in the cell medium was”, “the collected cell supernatant was” for “the collected supernatant was”
as §4, §5, §6
Combined efficacy was analyzed by MacSynergy™ II software.

SMILES	CC50 at 9 day of experiment (read-out) [1]	EC50 (D-type HBV [2]; day 9, read-out: HBV DNA EC50)	EC50 (D-type HBV [2]; day 9, read-out: HBeAg EC50)	EC50 (D-type HBV [2]; day 9, read-out: HBsAg EC50)	combined effect on the inhibition of HBsAg and HBeAg (D-type HBV [6])	antagonistic index (inhibition of HBsAg and HBeAg) (D-type HBV [6])	other results
C=C1[C@H](CO)[C@@H](O)C[C@@H]1n1cnc2c(=O)[nH]c(N)nc21 [ETV, Entecavir, reference compound]	> 20 nM	0.06 nM	> 20 nM	> 20 nM			
COCCCOc1cc2c(cc1Cl)-c1cc(=O)c(C(=O)O)cn1[C@H](c1cccs1)O2 [WWS0]	> 100 nM	1.01 nM	2.51 nM	3.19 nM			cytotoxicity within the test concentration range (HepG2-NTCP cells): no obvious cytotoxicity; EC50 (D-type HBV [3]; PHH, administration after infection, read-out: EC50 (Day 8) HBV DNA): 45.5 nM; EC50 (D-type HBV [3]; PHH, administration after infection, read-out: EC50 (Day 8) HBeAg): 32.4 nM; EC50 (D-type HBV [3]; PHH, administration after infection, read-out: EC50 (Day 8) HBsAg): 47.3 nM; EC50 (D-type HBV [3]; PHH, administration before infection, read-out: EC50 (Day 8) HBV DNA): 13.5 nM; EC50 (D-type HBV [3]; PHH, administration before infection, read-out: EC50 (Day 8) HBeAg): 26 nM; EC50 (D-type HBV [3]; PHH, administration before infection, read-out: EC50 (Day 8) HBsAg): 47.1 nM; inhibition of HBV DNA, HBeAg and HBsAg (D-type HBV [3]; PHH in vitro infection model, single drug): dose-dependent manner; inhibition of HBV replication, administration before versus after HBV infection (D-type HBV [3]; PHH, two modes of administration compared): basically the same; CC50 at 22 day of experiment (read-out) [4]: > 1000 nM; CC50 ([5]; administration before infection, Day 22): > 1000 nM; cytotoxicity within the test concentration range ([5]; single drug and combined action experiment): no obvious cytotoxicity; inhibition of HBV DNA, HBeAg and HBsAg (D-type HBV [2]; HepG2-NTCP infected by HBV): dose-dependent manner
O=C(O)c1cn2c(cc1=O)-c1cc(Cl)c(OCCN3CCOCC3)cc1OC2c1ccccc1 (stereo not drawn) [WWS01]					synergistic or additive effects	0	
COCCCOc1cc2c(cc1OC)-c1cc(=O)c(C(=O)O)cn1[C@H](c1sccc1Cl)O2 [WWS02]					synergistic or additive effects	0	
O=C(O)c1cn2c(cc1=O)-c1cc(Cl)c(OCC3CC3)cc1O[C@H]2c1scnc1Cl [WWS03]					synergistic or additive effects	0	
